Source: patent US12233047B2, “Pharmaceutical combination and use thereof” (ASCENTAGE PHARMA (SUZHOU) CO., LTD., priority 2019, dated 2025)

Tested on: Human AML cell line MV-4-11 (FLT3-ITD positive and wild type TP53 gene)
Experiment: Human MV-4-11 AML subcutaneous mouse xenograft model
Type: in vivo
Details: MV-4-11 subcutaneous xenograft, Compound 23 10 mg/kg, Compound C 30 mg/kg
Method: The formulation of Compound C was prepared as homogenous suspension in 0.2% HPMC using a mortar. The drug suspension was prepared every three days or once a week and placed at 4° C. when not in use. Before use, the drug suspension was placed at room temperature and shaken to mix well. The formulation of Compound C was administered to mice via p.o. in a volume of 10 mL/kg. […] The drug suspension was prepared once every other day and placed at 4° C. when not in use. Before use, the drug suspension was placed at room temperature and shaken well. […] MV-4-11 cells (Human AML cell line MV-4-11 (FLT3-ITD positive and wild type TP53 gene)) were maintained in IMDM (Cat. C12440500BT, GIBCO), with 10% fetal bovine serum (Cat. 10099-141, GIBCO), 1% L-glutamine, 100 U/mL penicillin G and 100 μg/mL streptomycin (Cat. GNM15140, Hangzhou Geno Biomedical Technology Co., Ltd). Cells were incubated at 37° C. in a humidified incubator with 5% CO2. Six to eight weeks old, female, NOD SCID and BALB/c nude mice were used. Animals were obtained from Vital River Laboratories (VRL, Beijing, China, license number SCXK(J) 2012-0001 and SCXK(J) 2016-0006). The body weights were 17-24 g. Randomization was conducted when the size of xenograft tumors reached 100-150 mm^3. Based on the size of the tumor and body weight, animals were randomly assigned into experimental groups. […] MV-4-11 subcutaneous xenograft models were established by subcutaneously injecting tumor cells (1×10^7 cells (50% Matrigel)/mouse) into the right flank of the mouse under the sterile condition. When the tumors reached an appropriate size (100-200 mm^3), mice were randomized into 6 mice per group and treatment was initiated (day 1) according to Table 4. [table] The tumors sizes and animal body weights were measured twice a week. Tumor volumes were estimated from measurements of two diameters of the individual tumors as follows: Tumor Volume (mm^3)=(a×b^2)/2 Relative tumor volume (RTV) were calculated according to the follows: RTV=Vt/V1 where V1 and Vt were respectively the average tumor volume on the first day of treatment (day 1) and the average tumor volume on a certain time point (day T). Standard NCI procedures were used to calculate tumor parameters (Teicher, B. A. (2011). “Tumor Models in Cancer Research.” Second Edition, Human Press). Percent tumor growth inhibition (% T/C) was calculated as the mean RTV of treated tumors (T) divided by the mean RTV of control tumors (C)×100%. […] A body weight loss (mean of group) of greater than 20%, or greater than 20% of drug deaths are considered to indicate an excessively toxic dosage. The synergistic analysis was performed using the following formula described in Clarke R. Issues in experimental design and endpoint analysis in the study of experimental cytotoxic agents in vivo in breast cancer and other models[J]. Breast Cancer Research & Treatment, 1997, 46(2-3):255-278, which is incorporated by reference in its entirety: expected value=(A/C)×(B/C); actual value=(AB)/C; A: RTV of drug A; B: RTV of drug B; C=RTV of the vehicle control group; AB=RTV of the combination group. Ratio=expected/actual value. […] A ratio=1 indicates the two drugs have additive effects. A ratio <1 indicates the two drugs may have antagonist effects. According to the earlier publication (Gao, H., et al. (2015). “High-throughput screening using patient-derived tumor xenografts to predict clinical trial drug response” Nat Med 21: 1318), additional measurements of response included stable disease (SD), partial tumor regression (PR), and complete regression (CR) were determined by comparing tumor volume change at day t to its baseline: tumor volume change (%)=(Vt−V1)/V1. […] For each time t, the average of tumor volume change from t=1 to t was also calculated. […]

## Cc1ccc(C(=O)Nc2ccc(CN3CCN(C)CC3)c(C(F)(F)F)c2)cc1C#Cc1cnc2[nH]ncc2c1 [Compound 23, 3-(2-(1H-pyrazolo[3,4-b]pyridin-5-yl)ethynyl)-4-methyl-N-(4-((4-methylpiperazin-1-yl)methyl)-3-(trifluoromethyl)phenyl)benzamide]
Day 22, p.o. q2d × 22 d, vehicle 2.29 ± 0.29, in g (unit assumed)
  Tumor weight on D 22 (Mean ± SEM): 0.67 ± 0.11
Mean RTV treated/control, day 22, p.o. q2d
  T/C(%)@D 22: 28.6%
Relative tumor volume day 22, p.o. q2d, vehicle 18.2 ± 3.3
  RTV@D 22: 5.2 ± 0.9
